In US8841233B2, “Herbicidal compositions comprising 4-amino-3-chloro-5-fluoro-6-(4-chloro-2-fluoro-3-methoxyphenyl) pyridine-2-carboxylic acid or a derivative thereof and 4-hydroxyphenyl-pyruvate dioxygenase (HPPD) inhibitors” (Dow Agrosciences LLC, priority 2012, dated 2014):
Several values for one entry are separate records, joined by “and”; a condition that tells them apart may be missing. Equal entries are not always repeated.

Experiments:
ECHCG = assay: In-water applied weed control, transplanted paddy rice, greenhouse (Example II); format: in vivo, Echinochloa crusgalli (L.) Beauv.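 As to Visual Weed Control (%) - 20 DAA ECHCG Obs: visual score 0 no injury to 100 complete kill versus untreated plants.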
Method: (§1) Evaluation of in-Water Applied Herbicidal Mixtures for Weed Control in Transplanted Paddy Rice
(§2) Weed seeds or nutlets of the desired test plant species were planted in puddled soil (mud) prepared by mixing a shredded, non-sterilized mineral soil (50.5 percent silt, 25.5 percent clay, and 24 percent sand, with a pH of about 7.6 and an organic matter content of about 2.9 percent) and water at a 1:1 volumetric ratio. The prepared mud was dispensed in 365 mL aliquots into 16-ounce (oz.) non-perforated plastic pots with a surface area of 86.59 square centimeters (cm^2) leaving a headspace of 3 centimeters (cm) in each pot. Mud was allowed to dry overnight prior to planting or transplanting. Rice seeds were planted in Sun Gro MetroMix® 306 planting mixture, which typically has a pH of 6.0 to 6.8 and an organic matter content of about 30 percent, in plastic plug trays. Seedlings at the second or third leaf stage of growth were transplanted into 840 mL of mud contained in 32-oz. non-perforated plastic pots with a surface area of 86.59 cm^2 4 days prior to herbicide application. The paddy was created by filling the headspace of the pots with 2.5 to 3 cm of water. When required to ensure good germination and healthy plants, a fungicide treatment and/or other chemical or physical treatment was applied. The plants were grown for 4-22 days in a greenhouse with an approximate 14 h photoperiod which was maintained at about 29′C during the day and 26° C. during the night. Nutrients were added as Osmocote® (19:6:12, N:P:K+ minor nutrients) at 2 g per 16-oz. pot and 4 g per 32-oz. pot. Water was added on a regular basis to maintain the paddy flood, and supplemental lighting was provided with overhead metal halide 1000-Watt lamps as necessary. The plants were employed for testing when they reached the first through fourth true leaf stage.
(§3) Treatments consisted of the acid or esters of 4-amino-3-chloro-5-fluoro-6-(4-chloro-2-fluoro-3-methoxy-phenyl)pyridine-2-carboxylic acid (compound A) each formulated as an SC (suspension concentrate) and various herbicidal components alone and in combination. Forms of compound A were applied on an acid equivalent basis.
(§4) Other herbicidal components were applied on an active ingredient basis and included 4-hydroxyphenyl pyruvate dioxygenase (HPPD)-inhibiting herbicides mesotrione formulated as Callisto®, sulcotrione formulated as Mikado®, pyrazolynate formulated as Sunbird® 10% GR, and benzobicyclon formulated as Benzobicyclon 3.5% or technical material.
(§5) Treatment requirements for each compound or herbicidal component were calculated based upon the rates being tested, the concentration of active ingredient or acid equivalent in the formulation, an application volume of 2 mL per component per pot, and an application area of 86.59 cm^2 per pot.
(§6) For formulated compounds, a measured amount was placed in an individual 100 or 200 mL glass vial and was dissolved in a volume of 1.25% (v/v) Agri-Dex® crop oil concentrate to obtain application solutions.
(§7) For technical grade compounds, a weighed amount was placed in an individual 100 to 200 mL glass vial and was dissolved in a volume of acetone to obtain concentrated stock solutions. […] The concentrated stock solutions obtained were diluted with an equivalent volume of an aqueous mixture containing 2.5% (v/v) crop oil concentrate so that the final application solutions contained 1.25% (v/v) crop oil concentrate.
(§8) Applications were made by injecting with a pipetter appropriate amounts of the application solutions, individually and sequentially, into the aqueous layer of the paddy. Control plants were treated in the same manner with the solvent blank. Applications were made so that all treated plant material received the same concentrations of acetone and crop oil concentrate.
(§9) The treated plants and control plants were placed in a greenhouse as described above and water was added as needed to maintain a paddy flood. […]

LEFCH = assay: as above; format: in vivo, Leptochloa chinensis (L.) Nees
Method: as §1, §2, §3, §4, §5, §6, §7, §8, §9

Compound | Visual Weed Control (%) - 21 DAA ECHCG Obs (ECHCG; 8.75 gae/ha) [%] | Visual Weed Control (%) - 20 DAA ECHCG Obs (ECHCG; 17.5 gae/ha) | Visual Weed Control (%) - 21 DAA ECHCG Obs (ECHCG; 17.5 gae/ha) [%] | Visual Weed Control (%) - 20 DAA ECHCG Obs (ECHCG; 35 gae/ha) [%] | Visual Weed Control (%) - 21 DAA LEFCH Obs (LEFCH; 8.75 gae/ha) [%] | Visual Weed Control (%) - 21 DAA LEFCH Obs (LEFCH; 17.5 gae/ha) [%] | Visual Weed Control (%) - 22 DAA ECHCG Obs (ECHCG; 8.75 gae/ha) [%] | Visual Weed Control (%) - 22 DAA ECHCG Obs (ECHCG; 17.5 gae/ha) [%] | Visual Weed Control (%) - 21 DAA LEFCH Obs (LEFCH; 4.38 gae/ha) [%]
COc1c(Cl)ccc(-c2nc(C(=O)O)c(Cl)c(N)c2F)c1F [Compound A Acid, 4-amino-3-chloro-6-(4-chloro-2-fluoro-3-methoxyphenyl)-5-fluoropyridine-2-carboxylic acid] | 20 | 35% and 30% | 30 | 55 | 0 | 0 |  |  | 
COc1c(Cl)ccc(-c2nc(C(=O)OCc3ccccc3)c(Cl)c(N)c2F)c1F [Compound A Benzyl Ester, benzyl ester of 4-amino-3-chloro-5-fluoro-6-(4-chloro-2-fluoro-3-methoxy-phenyl)pyridine-2-carboxylic acid] |  |  |  |  | 15 |  | 45 | 90 | 15
